Columns and labels:
[1] = biological target: T1, human insulin receptor (IR-A) (Homo sapiens, UniProt P06213); assay: Insulin receptor affinity, SPA antibody capture assay (0% HSA); type: binding; details: affinity relative to human insulin
Procedure: (§1) The affinity of the acylated insulin analogues of this invention for the human insulin receptor is determined by a SPA assay (Scintillation Proximity Assay) microtiterplate antibody capture assay. […] Reagent mix for a single Packard Optiplate (Packard No. 6005190) is composed of 2.4 μl of a 1:5000 diluted purified recombinant human insulin receptor (either with or without exon 11), an amount of a stock solution of A14Tyr[^125I]-human insulin corresponding to 5000 cpm per 100 μl of reagent mix, 12 μl of a 1:1000 dilution of F12 antibody, 3 ml of SPA-beads and binding buffer to a total of 12 ml. A total of 100 μl reagent mix is then added to each well in the Packard Optiplate and a dilution series of the insulin derivative is made in the Optiplate from appropriate samples. The samples are then incubated for 16 hours while gently shaken. The phases are the then separated by centrifugation for 1 min and the plates counted in a Topcounter. The binding data were fitted using the nonlinear regression algorithm in the GraphPad Prism 2.01 (GraphPad Software, San Diego, Calif.) and affinities are expressed relative (in percentage (%)) to the affinity of human insulin.

[2] = Hydrophobicity by reverse phase HPLC under isocratic conditions; type: physicochemical; details: isocratic RP-HPLC, pH 7.3; human insulin as reference (k'rel = 1)
Procedure: The void time of the HPLC system, t0, is determined by injecting 5 μl of 0.1 mM NaNO3. Running conditions:
Column: Lichrosorb RP-C18, 5 μm, 4×250 mm
Buffer A: 0.1 M natrium phosphate pH 7.3, 10 vol % CH3CN

[3] = biological target: T1, human insulin receptor (IR-A); assay: Insulin receptor affinity, SPA assay with binding buffer containing 4.5% HSA; details: 4.5% HSA in binding buffer; affinity relative to human insulin
Procedure: as §1

T1 sequence (P06213 28-746 isoform P06213-2 limits assumed): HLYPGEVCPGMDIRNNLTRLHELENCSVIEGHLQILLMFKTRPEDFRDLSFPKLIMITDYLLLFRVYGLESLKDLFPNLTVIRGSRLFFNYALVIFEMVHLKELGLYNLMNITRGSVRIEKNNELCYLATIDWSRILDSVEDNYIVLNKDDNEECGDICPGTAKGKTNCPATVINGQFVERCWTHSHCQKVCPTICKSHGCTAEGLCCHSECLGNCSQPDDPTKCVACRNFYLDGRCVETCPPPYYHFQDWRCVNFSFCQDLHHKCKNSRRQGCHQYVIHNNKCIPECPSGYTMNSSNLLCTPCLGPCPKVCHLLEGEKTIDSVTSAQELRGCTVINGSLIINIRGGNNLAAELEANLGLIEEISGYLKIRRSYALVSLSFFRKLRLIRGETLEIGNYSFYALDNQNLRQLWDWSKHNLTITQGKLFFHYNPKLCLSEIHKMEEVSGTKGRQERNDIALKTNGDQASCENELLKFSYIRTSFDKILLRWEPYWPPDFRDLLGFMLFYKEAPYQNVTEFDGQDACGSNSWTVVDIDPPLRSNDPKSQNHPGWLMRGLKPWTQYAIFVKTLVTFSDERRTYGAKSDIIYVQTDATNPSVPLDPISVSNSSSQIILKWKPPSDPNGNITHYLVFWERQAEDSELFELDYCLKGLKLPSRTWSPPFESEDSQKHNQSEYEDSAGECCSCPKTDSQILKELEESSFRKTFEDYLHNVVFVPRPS
T1 sequence (P06213 763-1382 partner limits assumed): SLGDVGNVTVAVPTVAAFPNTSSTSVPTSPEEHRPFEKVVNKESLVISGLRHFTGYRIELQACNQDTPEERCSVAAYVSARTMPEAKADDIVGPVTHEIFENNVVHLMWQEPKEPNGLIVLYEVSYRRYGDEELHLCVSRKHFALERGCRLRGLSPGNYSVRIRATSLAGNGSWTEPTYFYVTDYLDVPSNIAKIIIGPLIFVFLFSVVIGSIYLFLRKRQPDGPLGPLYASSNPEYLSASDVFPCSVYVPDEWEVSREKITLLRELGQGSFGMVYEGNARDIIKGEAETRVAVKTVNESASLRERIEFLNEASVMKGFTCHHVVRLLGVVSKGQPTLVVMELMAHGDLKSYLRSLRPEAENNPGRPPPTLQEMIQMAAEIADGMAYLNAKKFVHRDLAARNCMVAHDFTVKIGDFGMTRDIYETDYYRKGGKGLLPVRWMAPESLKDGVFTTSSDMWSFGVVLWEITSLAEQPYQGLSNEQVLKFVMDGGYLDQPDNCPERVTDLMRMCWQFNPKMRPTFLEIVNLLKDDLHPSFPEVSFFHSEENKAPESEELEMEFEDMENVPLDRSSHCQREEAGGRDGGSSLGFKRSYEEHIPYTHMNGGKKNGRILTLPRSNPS

| Substance | Relative IR-A affinity (@ 0% HSA) (%) [1] | Relative hydrophobicity, k'relderiv [2] | Relative IR-A affinity (@ 4.5% HSA) (%) [3] |
| --- | --- | --- | --- |
| A14E, B25H, B29K(N^ε3-Carboxy-5-octadecanedioylaminobenzoyl), desB30 Human Insulin [Example 4] | 3.4% | .48 |  |
| A14E, B25H, B29K(N^ε4-([4-({19-Carboxynonadecanoylamino}methyl)trans-cyclohexane-carbonyl-]-γGlu-γGlu), desB30 Human Insulin [Example 12] | 1.7% | .94 |  |
| A14E, B25H, B29K(N^ε4-([4-({19-Carboxynonadecanoylamino}methyl)trans-cyclohexanecarbonyl]-γGlu), desB30 Human Insulin [Example 7] | 2.1% | 2.78 |  |
| A14E, B25H, B29K(N^ε (N-Octadecandioyl-N-carboxymethyl)-beta-alanyl), desB30 Human Insulin [Example 6] | 2.6% |  | .04% |
| A14E, B25H, B29K(N^ε(5-Eicosanedioylaminoisophthalic acid)), desB30 Human Insulin [Example 47] | 1.2% |  | 0.10% |
| A14E, B25H, B29K(N^εEicosanedioyl-Aoc), desB30 Human Insulin [Example 53] | 2.3% |  | 0.03% |
| A14E, B25H, B29K(N^εMyristyl), desB30 Human Insulin [Example 10] | 9.5% | 14.60 |  |
| A14E, B25H, B29K(N^εOctadecanedioyl-γGlu-Abu-Abu-Abu-Abu), desB30 Human Insulin [Example 41] | 1.6% |  | .31% |
| A14E, B25H, B29K(N^εeicosanedioyl-γGlu-(3-(2-{2-[2-(2-aminoethoxy)ethoxy]ethoxy}ethoxy)propionyl-γGlu), desB30 Human Insulin [Example 17] | .9% | .57 |  |
| A14E, B25H, B29K(N^εoctadecandioyl-γGlu-PEG7), desB30 Human Insulin [Example 15] | 1.9% | .43 |  |
| A14E, B25H, B29K(N^ε—N-octadecandioyl-N-(2-carboxyethyl)glycyl), desB30 Human Insulin [Example 5] | 2.5% | .23 |  |
